Laboratory results: publication PMC8564858, “Flavonoid-based inhibitors of the Phi-class glutathione transferase from black-grass to combat multiple herbicide resistance” (Organic & Biomolecular Chemistry, 2021)

Legend:
AmGSTF1 [1] = assay: CDNB assay: inhibition of AmGSTF1-catalysed glutathionylation of CDNB; assay type: biochemical, Alopecurus myosuroides; conditions: three replicate measurements
AmGSTF1 [2] = assay: Thermal shift assay; assay type: binding, Alopecurus myosuroides; conditions: difference in melting temperature compared to no ligand

SMILES	CDNB Assay % Inhibition (AmGSTF1 [1]; 10 µM compound) [%]	CDNB Assay % Inhibition (AmGSTF1 [1]; 100 µM compound) [%]	Thermal Shift Assay ∆Tm (AmGSTF1 [2]; 1 µM)	Thermal Shift Assay ∆Tm (AmGSTF1 [2]; 10 µM)	Thermal Shift Assay ∆Tm (AmGSTF1 [2]; 100 µM)	CDNB Assay % Inhibition (AmGSTF1 [1]; 1 µM compound) [%]
COc1cc(OC)c2c(=O)cc(-c3ccc(S(C)(=O)=O)cc3)oc2c1 [18l]	14	35	0.13	0.20	0.30	–
COc1cc(OC)c2c(=O)cc(-c3ccncc3)oc2c1 [18m]	10	50	0.23	0.27	0.23	–
COc1cc(OC)c2c(=O)cc(-c3cnnc(C)c3)oc2c1 [18n]	8	64	-0.07	-0.13	-0.33	–
O=c1cc(-c2ccccc2)oc2cc(O)cc(O)c12 [compound 2, 5,7-dihydroxyflavone, reference compound]	47	96	0.1	0.1	0.2	–
O=c1cc(-c2ccccc2)oc2ccc(O)cc12 [compound 4, reference compound]	–	61	0.4	0.0	-0.2	–
O=c1cc(-c2ccccc2)oc2ccccc12 [compound 7, reference compound]	–	14	0.3	0.0	-0.2	–
COc1cc(OC)c2c(=O)cc(-c3nnc(C)o3)oc2c1 [compound 19]	8	53	-0.10	-0.17	-0.27	–
COc1cc(OC)c2c(=O)cc(-c3ncco3)oc2c1 [compound 20]	11	64	-0.10	-0.17	-0.23	–
COc1cc(OC)c2c(=O)cc(-c3nnn[nH]3)oc2c1 [compound 22]	13	53	-0.23	-0.27	-0.43	–
COc1cc(OC)c2c(=O)cc(-c3ccn[nH]3)oc2c1 [compound 24]	6	59	-0.30	-0.07	-0.03	–
COc1cc(OC)c2c(=O)cc(-c3ccnn3C)oc2c1 [compound 25]	9	58	0	-0.03	-0.10	–
COc1cc(OC)c2c(=O)cc(-c3ccn(C)n3)oc2c1 [compound 26]	19	64	0	-0.03	-0.17	–
COc1cc(OC(C)C(=O)O)c2c(=O)cc(-c3ccccc3)oc2c1 (centres unmarked) [compound 41]	14	–	0.20	0.20	1.10	–
CCCCCC(Oc1cc(OC)cc2oc(-c3ccccc3)cc(=O)c12)C(=O)O (centres unmarked) [compound 42]	69	–	0.17	0.43	2.33	4
CCCCCCCC(Oc1cc(OC)cc2oc(-c3ccccc3)cc(=O)c12)C(=O)O (centres unmarked) [compound 43]	86	–	0.27	0.70	2.93	40
CCCCCCCCCC(Oc1cc(OC)cc2oc(-c3ccccc3)cc(=O)c12)C(=O)O (centres unmarked) [compound 44]	97	–	0.40	0.70	0.90	58
